Measurements: ChEMBL document CHEMBL2385069, “Thiourea derivatives incorporating a hippuric acid moiety: synthesis and evaluation of antibacterial and antifungal activities” (2013)

Assays:
Format in all cases: functional
Candida albicans = assay: Antifungal activity against Candida albicans NRRLY-477 assessed as diameter of inhibition zone at 1 mg/ml after 24 hrs by agar well diffusion method; conditions: NRRLY-477, 24 h, read-out: DIZ
Saccharomyces cerevisiae = assay: Antifungal activity against Saccharomyces cerevisiae assessed as diameter of inhibition zone at 1 mg/ml after 24 hrs by agar well diffusion method; conditions: read-out: DIZ
Proteus vulgaris = assay: Antibacterial activity against Proteus vulgaris assessed as diameter of inhibition zone at 1 mg/ml after 24 hrs by agar well diffusion method; conditions: read-out: DIZ
Micrococcus luteus = assay: Antibacterial activity against Sarcina lutea assessed as diameter of inhibition zone at 1 mg/ml after 24 hrs by agar well diffusion method; conditions: read-out: DIZ
Escherichia coli = assay: Antibacterial activity against Escherichia coli ATCC 25922 assessed as diameter of inhibition zone at 1 mg/ml after 24 hrs by agar well diffusion method; conditions: ATCC 25922, 24 h, read-out: DIZ
Pseudomonas aeruginosa = assay: Antibacterial activity against Pseudomonas aeruginosa ATCC 27953 assessed as diameter of inhibition zone at 1 mg/ml after 24 hrs by agar well diffusion method; conditions: ATCC 27953, 24 h, read-out: DIZ
Klebsiella pneumoniae = assay: Antibacterial activity against Klebsiella pneumoniae ATCC 13883 assessed as diameter of inhibition zone at 1 mg/ml after 24 hrs by agar well diffusion method; conditions: ATCC 13883, 24 h, read-out: DIZ
Priestia megaterium = assay: Antibacterial activity against Bacillus megaterium ATCC 9885 assessed as diameter of inhibition zone at 1 mg/ml after 24 hrs by agar well diffusion method; conditions: ATCC 9885, 24 h, read-out: DIZ
Bacillus subtilis = assay: Antibacterial activity against Bacillus subtilis ATCC 6633 assessed as diameter of inhibition zone at 1 mg/ml after 24 hrs by agar well diffusion method; conditions: ATCC 6633, 24 h, read-out: DIZ
Staphylococcus aureus = assay: Antibacterial activity against Staphylococcus aureus ATCC 29213 assessed as diameter of inhibition zone at 1 mg/ml after 24 hrs by agar well diffusion method; conditions: ATCC 29213, 24 h, read-out: DIZ

Structure (SMILES)	zone of inhibition at 1000 µg/mL (Candida albicans)	zone of inhibition at 1000 µg/mL (Saccharomyces cerevisiae)	zone of inhibition at 1000 µg/mL (Proteus vulgaris)	zone of inhibition at 1000 µg/mL (Micrococcus luteus)	zone of inhibition at 1000 µg/mL (Escherichia coli)	zone of inhibition at 1000 µg/mL (Pseudomonas aeruginosa)	zone of inhibition at 1000 µg/mL (Klebsiella pneumoniae)	zone of inhibition at 1000 µg/mL (Priestia megaterium)	zone of inhibition at 1000 µg/mL (Bacillus subtilis)	zone of inhibition at 1000 µg/mL (Staphylococcus aureus)
CCCCCCNC(=S)Nc1ccc(C(=O)NCC(=O)O)cc1	0 mm	9 mm	0 mm	24 mm	11 mm	0 mm	12 mm	23 mm	9 mm	0 mm
O=C(O)CNC(=O)c1ccc(NC(=S)Nc2ccccc2)cc1	0 mm	0 mm	0 mm	0 mm	19 mm	12 mm	0 mm	13 mm	17 mm	0 mm
Cc1ccc(NC(=S)Nc2ccc(C(=O)NCC(=O)O)cc2)cc1	18 mm	0 mm	20 mm	25 mm	9 mm	0 mm	0 mm	19 mm	0 mm	0 mm
O=C(O)CNC(=O)c1ccc(NC(=S)Nc2ccc(F)cc2)cc1	9 mm	13 mm	20 mm	20 mm	22 mm	22 mm	20 mm	15 mm	0 mm	20 mm
O=C(O)CNC(=O)c1ccc(NC(=S)Nc2c3ccccc3nc3ccccc23)cc1	11 mm	0 mm	20 mm	0 mm	15 mm	15 mm	23 mm	18 mm	12 mm	20 mm
O=C(O)CNC(=O)c1ccc(NC(=S)Nc2ccccc2C(=O)Nc2cccc(C(F)(F)F)c2)cc1	0 mm	15 mm	10 mm	0 mm	0 mm	0 mm	0 mm	14 mm	16 mm	0 mm
CCOc1ccc(NC(=O)c2ccccc2NC(=S)Nc2ccc(C(=O)NCC(=O)O)cc2)cc1	9 mm	18 mm	15 mm	0 mm	0 mm	0 mm	20 mm	0 mm	0 mm	20 mm
NS(=O)(=O)c1ccc(NC(=S)Nc2ccc(C(=O)NCC(=O)O)cc2)cc1	0 mm	17 mm	20 mm	20 mm	18 mm	19 mm	22 mm	20 mm	18 mm	14 mm
CC(=O)NS(=O)(=O)c1ccc(NC(=S)Nc2ccc(C(=O)NCC(=O)O)cc2)cc1	0 mm	0 mm	0 mm	0 mm	0 mm	12 mm	0 mm	20 mm	18 mm	15 mm
N=C(N)NS(=O)(=O)c1ccc(NC(=S)Nc2ccc(C(=O)NCC(=O)O)cc2)cc1	0 mm	15 mm	0 mm	0 mm	0 mm	0 mm	0 mm	20 mm	16 mm	0 mm
O=C(O)CNC(=O)c1ccc(NC(=S)Nc2ccc(S(=O)(=O)Nc3nccs3)cc2)cc1	0 mm	0 mm	0 mm	0 mm	0 mm	30 mm	0 mm	14 mm	15 mm	0 mm
O=C(O)CNC(=O)c1ccc(NC(=S)Nc2ccc(S(=O)(=O)Nc3ccccn3)cc2)cc1	11 mm	20 mm	0 mm	0 mm	21 mm	21 mm	20 mm	0 mm	12 mm	23 mm
Cc1c(NC(=S)Nc2ccc(C(=O)NCC(=O)O)cc2)c(=O)n(-c2ccccc2)n1C	0 mm	17 mm	19 mm	24 mm	14 mm	22 mm	19 mm	18 mm	15 mm	18 mm
O=C(O)CNC(=O)c1ccc(NC(=S)NNC(=O)c2ccccc2)cc1	9 mm	13 mm	15 mm	20 mm	15 mm	15 mm	20 mm	10 mm	12 mm	22 mm
O=C(O)CNC(=O)c1ccc(NC(=S)NNC(=O)c2ccncc2)cc1	12 mm	0 mm	0 mm	24 mm	0 mm	12 mm	0 mm	23 mm	0 mm	0 mm
CCCCNC(=S)Nc1ccc(C(=O)NCC(=O)O)cc1	10 mm	18 mm	21 mm	9 mm	22 mm	22 mm	20 mm	16 mm	13 mm	22 mm
